Results published in US5260197A, “L-fucose dehydrogenase, a process for production thereof, quantitative assay for L-fucose using said enzyme and a kit for quantitative assay” (Noda Institute for Scientific Research, priority 1988, dated 1993).
Where two headings read alike, the source gives them in different places.

Legend:
[1] = molecular target: T1, L-fucose dehydrogenase (L-FDH) (Pseudomonas sp, UniProt Q52472); type: biochemical; details: for Residual Activity (%): inhibitor or metal salt 2 mM in reaction solution, None = 100
T1 construct: L-FDH was accumulated in the cell portion; made in house; host or cells: Pseudomonas sp; No. 1143 (FERM BP-2056), the natural producing strain isolated from soil; enzyme purified from its cells, not recombinant
T1 sequence (Q52472 1-329): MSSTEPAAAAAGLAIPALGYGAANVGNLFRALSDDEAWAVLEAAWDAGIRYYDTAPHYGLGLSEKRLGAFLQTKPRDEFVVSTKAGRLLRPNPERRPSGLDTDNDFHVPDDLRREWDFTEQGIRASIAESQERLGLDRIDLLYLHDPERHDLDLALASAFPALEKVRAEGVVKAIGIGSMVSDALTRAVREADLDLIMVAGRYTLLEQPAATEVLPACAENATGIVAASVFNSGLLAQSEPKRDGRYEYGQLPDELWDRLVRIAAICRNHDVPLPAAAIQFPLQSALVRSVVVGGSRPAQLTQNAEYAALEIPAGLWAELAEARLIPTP
Method: (§1) To 2.5 ml of Tris-imidazole-sodium acetate buffer solution (solution containing 0.12 M each is adjusted to pH of 9.5 with 4 N NaOH) is added 0.2 ml of 15 mM NADP^+ solution After keeping at 37° C. for 5 minutes, 0.1 ml of an enzyme solution is added and 0.2 ml of 150 mM L-fucose solution is further added to the system to initiate the reaction. Immediately thereafter, the reaction mixture is transferred to a cell for measurement of absorbance (1 cm light path) kept at 37° C. and absorbance is measured at the wavelength of 340 nm for 2 minutes or, if necessary, over a longer time period. One unit is an amount of enzyme that produces 1 μmole of NADPH for one minute.

[2] = molecular target: T1, L-fucose dehydrogenase (L-FDH); assay: L-FDH substrate and coenzyme specificity (determination of activity, NADPH at 340 nm); type: biochemical, Pseudomonas sp. No. 1143; details: for specificity of the enzyme to substrate sugar (relative activity): L-fucose = 100%, NADP+ as coenzyme; for coenzyme requirement (relative activity): NADP+ = 100%, L-fucose as substrate
Method: As shown in the following reaction equation, the enzyme oxidizes L-fucose to L-fuconolactone in the presence of L-fucose and NADP+ and at the same time reduces NADP^+ to NADPH.
Furthermore, the enzyme requires NADP^+ (100%) as coenzyme but reacts very little with NAD^+ (1%).
as §1

[3] = molecular target: T1, L-fucose dehydrogenase (L-FDH); assay: Optimum pH and temperature, pH stability and thermal stability of L-FDH; type: biochemical, Pseudomonas sp. No. 1143
Method: By heat treatment at 30° C. for 60 minutes, the enzyme is stable at a pH value of 8.0 to 10.5 but is unstable at a pH value below 6.0.
as §1

[4] = Polyacrylamide gel isoelectrofocusing of L-FDH; type: physicochemical, Pseudomonas sp. No. 1143
[5] = metal salts and inhibitors, 2 mM

[Ca+2].[Cl-].[Cl-] [CaCl2]
inhibition and activation of enzyme activity [1, 5]: not observed

O=S(=O)([O-])[O-].[Cd+2] [CdSO4]
Residual Activity (%) [1]: 2%

O=S(=O)([O-])[O-].[Cu+2] [CuSO4]
inhibition and activation of enzyme activity [1, 5]: not observed

O=C[C@@H](O)[C@H](O)[C@H](O)CO [D-arabinose]
specificity of the enzyme to substrate sugar (relative activity) [2]: 1%

O=C(O)CN(CCN(CC(=O)O)CC(=O)O)CC(=O)O [EDTA]
inhibition and activation of enzyme activity [1]: not observed

[Cl][Hg][Cl] [HgCl2]
Residual Activity (%) [1]: 2%

NC(=O)CI [Iodoacetamide]
Residual Activity (%) [1]: 91%

C[C@H](O)[C@@H](O)[C@@H](O)[C@H](O)C=O [L-fucose]
specificity of the enzyme to substrate sugar (relative activity) [2]: 100%

O=C[C@@H](O)[C@H](O)[C@H](O)[C@@H](O)CO [L-galactose]
specificity of the enzyme to substrate sugar (relative activity) [2]: 96%

O=S(=O)([O-])[O-].[Mg+2] [MgSO4]
inhibition and activation of enzyme activity [1, 5]: not observed

NC(=O)c1ccc[n+]([C@@H]2O[C@H](COP(=O)([O-])OP(=O)(O)OC[C@H]3O[C@@H](n4cnc5c(N)ncnc54)[C@H](OP(=O)(O)O)[C@@H]3O)[C@@H](O)[C@H]2O)c1 [NADP^+, oxidized nicotinamide adenine dinucleotide phosphate]
coenzyme requirement (relative activity) [2]: 100%

NC(=O)c1ccc[n+]([C@@H]2O[C@H](COP(=O)([O-])OP(=O)(O)OC[C@H]3O[C@@H](n4cnc5c(N)ncnc54)[C@H](O)[C@@H]3O)[C@@H](O)[C@H]2O)c1 [NAD^+, nicotinamide adenine dinucleotide]
coenzyme requirement (relative activity) [2]: 1%

[N-]=[N+]=[N-].[Na+] [NaN3]
inhibition and activation of enzyme activity [1, 5]: not observed

O=S(=O)([O-])[O-].[Ni+2] [NiSO4]
inhibition and activation of enzyme activity [1, 5]: not observed

O=C(O)c1cc[c]([Hg][Cl])cc1 [PCMB]
Residual Activity (%) [1]: 18%

O=S(=O)([O-])[O-].[Zn+2] [ZnSO4]
Residual Activity (%) [1]: 81%

c1cnc2c(c1)ccc1cccnc12 [o-phenanthroline]
inhibition and activation of enzyme activity [1, 5]: not observed

c1ccc(-c2ccccn2)nc1 [α,α'-dipyridyl]
inhibition and activation of enzyme activity [1, 5]: not observed

L-fucose dehydrogenase [L-FDH]
pH at which the enzyme is unstable ([3]; heat treatment at 30° C. for 60 minutes): below 6.0
temperature up to which the enzyme is stable ([3]; heat treatment for 10 minutes, FIG. 4): up to 40 °C
isoelectric point [4]: 5.2
